Source: US11104657B2, “Notch inhibitors for use in the treatment of t-cell acute lymphoblastic leukemia” (UNIVERSITÀ DEGLI STUDI DI ROMA “LA SAPIENZA”, priority 2016, dated 2021)
Like-named read-outs stand apart in the source and are kept apart here.

Experiments:
[1] = system: Notch signaling (N1VAL, N3ICD) in DND41 cells; assay: Western blot of N1VAL and N3ICD expression in DND41 cells; assay type: cell-based, human; settings: for effect on the expression of N1VAL / concentration at which expression of N1VAL and N3ICD is decreased: DND41 cells, 36 hours, Western blot; for effect on the expression of N1VAL: 0-50 μM
Protocol: In order to identify new naturally-occurring molecular agents able to modulate Notch signaling, the effects on protein expression of the activated domain of Notch1 (N1VAL), and of the intracellular domain of Notch3 (N3ICD), were evaluated in DND41 cells through
Western blotting assays, following treatment for 36 hours with increasing concentrations (0, 1, 5, 10, 20, 50 μM) of the eight molecules (A-H) previously selected. Functional biochemical screening was performed on T-ALL DND41 cells because they are notoriously sensitive to the block of Notch signaling, and characterized by the constitutive and ligand-independent activation of the Notch1 pathway and by the high expression of Notch3. This makes this cell line a useful experimental model for screening putative Notch inhibitors.
In order to investigate the activity and selectivity of action of the 12 synthetic derivatives of butein, and following the screening scheme described in the first design phase, the efficacy of these molecules was analyzed by verifying the effects of 36 hours of treatment at increasing doses on the activation of Notch signaling and on the proliferation in DND41 cells.
Laemmli Sample Buffer (161-0737; Bio-Rad Laboratories Inc., Hercules, Calif., USA) was added to each cell pellet. Cells were lysed by ultrasonic sonication and to each mixture 5% 2-mercaptoethanol (161-0710; Bio-Rad Laboratories Inc., Hercules, Calif., USA) was added. Samples were denatured at 100° C. for 5 min and protein mixtures were separated by means of Sodium Dodecyl Sulphate-Polyacrylamide Gel Electrophoresis using 8% acrylamide and transferred onto nitrocellulose membranes. After transfer, the membranes pre-saturated in 5% Blot Dry Fat Milk (1706404; Bio-Rad Laboratories Inc., Hercules, Calif., USA) were incubated for 16 hours at +4° C. with the following primary antibodies diluted at 1:1000 in 5% Dry Fat Milk (1706404; Bio-Rad Laboratories Inc., Hercules, Calif., USA): Notch1Val1744 (2421; Cell Signaling Technology, Beverly, Mass., USA), Notch3 (2889; Cell Signaling Technology, Beverly, Mass., USA) and β-actin (sc-47778; Santa Cruz Biotechnology, Santa Cruz, Calif., USA). Subsequently, filters were incubated for 1 hour at room temperature with the following secondary antibodies: anti-rabbit (sc-2004, Santa Cruz Biotechnology, Santa Cruz, Calif., USA) or anti-mouse (sc-2005, Santa Cruz Biotechnology, Santa Cruz, Calif., USA). Chemiluminescence signal detection was performed using the ECL Advanced Detection System substrate (RPN2135; E Healthcare UK Limited, Buckinghamshire, UK).

DND41 cells = assay: MTS cell proliferation assay (IG50), DND41; assay type: cell-based, human; settings: for effect on cell proliferation: doses of up to 50 μM
Protocol: In order to evaluate the biological implications of the compounds, their effect on cell proliferation/vitality was tested by determining the relative concentrations of growth inhibition (IG50) by means of the MTS cellular assay.
The cell lines DND41 (ACC 525, DSMZ, Braunschweig, GERMANY), KOPTK1 (RRID: CVCL_4965) were maintained in culture in RPMI-1640 (Gibco, Carlsbad, Calif., USA) with 10% fetal bovine serum. TALL-1 cells (ACC-521: DSMZ, Braunschweig, GERMANY) were cultured in RPMI-1640 (Gibco, Carlsbad, Calif., USA) supplemented with 20% fetal bovine serum, while HaCaT cells (ACC-771: DSMZ, Braunschweig, GERMANY) were maintained in Eagle's culture medium according to Dulbecco (Gibco, Carlsbad, Calif., USA) containing 10% fetal bovine serum. Cells were treated with the naturally-occurring compounds A-H or with compounds 1-17 for times and concentrations indicated in the text.
Cells were seeded in 96-well plates with a density of 5×10^5 cells/ml (5×10^4 cells per well) and treated for the times and the concentrations of the various compounds, as indicated in the text.
All treatments were carried out in triplicate, including control treatments. All treatment reactions contained a final concentration of 1% DMSO (D5879; Sigma-Aldrich, St Louis, Mo., USA). To quantify vitality, cells were assayed by the MTS CellTiter 96® AQueous One Solution Cell Proliferation Assay (G3580; Promega, Madison, Wis., USA). Absorbance was detected at 490 nm using the GloMax Multidetection System instrument (Promega, Madison, Wis., USA). Data were collected in the form of absorbance units (ABSs) and standardized to obtain the proliferation rate (MTS) through the equation: % cell proliferation=(ABScell culture+compound−ABSculture medium+compound/(ABScell culture+DMSO−ABSculture medium+DMSO)×100.
The 50% inhibition concentration was calculated using the GraphPad Prism software program (GraphPad Software Inc., La Jolla, Calif., USA).

[2] = Homo sapiens, 36-hour treatments in DND41 cells, mean of triplicate experiments ± S.D., Table 2, read-out: IG50 ± S.D.
[3] = Homo sapiens, 36-hour treatments in DND41 cells, mean of triplicate experiments ± S.D., Table 1, read-out: IG50 S.D.
[4] = Homo sapiens, DND41 cells, MTS assay, 36 hours of treatment, read-out: IG50 (growth inhibition)

Compound	IC50 (DND41 cells; [2]) [µM]	other results
CC(=O)C1=C(O)[C@]2(C)C(=CC1=O)Oc1c(C(C)=O)c(O)c(C)c(O)c12 [Compound G, 2,6-diacetyl-7,9-dihydroxy-8,9b-dimethyldibenzofuran-1,3-dione, reference compound]		effect on the expression of N1VAL [1]: did not significantly modulate; effect on cell proliferation (DND41 cells; DND41 cells): do not significantly affect cell proliferation; IC50 (DND41 cells; Homo sapiens, DND41, 36 h, read-out: IG50 S.D.): > 50 µM
COc1ccc(C(=O)/C=C/c2ccc(OC3CCCCO3)cc2)c(O)c1 (centres unmarked) [Compound 8a, 2′-hydroxy-4′-methoxy-4-(tetrahydropyran-2-yloxy)chalcone]	48.5 ± 3.42	
O=c1c(O)c(-c2ccccc2)oc2cc(O)cc(O)c12 [Compound H, 3,5,7-trihydroxy-2-phenylchromen-4-one, reference compound]		IC50 (DND41 cells; [3]): 22.6 µM; IC50 (DND41 cells; [4]): 22.6 ± 1.89 µM
O=C(/C=C/c1ccc(OC2CCCCO2)cc1)c1ccccc1O (centres unmarked) [Compound 14a, 2′-hydroxy-4-(tetrahydropyran-2-yloxy)chalcone]	48.6 ± 3.42	
COc1ccc(C(=O)/C=C/c2ccc(OC3CCCCO3)cc2)c(OC)c1 (centres unmarked) [Compound 16a, 2′,4′-dimethoxy-4-(tetrahydropyran-2-yloxy)chalcone]	32.6 ± 0.92	
COc1ccc(C(=O)/C=C/c2ccc(OC)c(O)c2)c(O)c1 [Compound 5, 2′,3-dihydroxy-4,4′-dimethoxychalcone]	36.2 ± 10.6	
COc1cccc(/C=C/C(=O)c2ccc(OC)cc2O)c1 [Compound 10, 2′-hydroxy-3,4′-dimethoxychalcone]	21.3 ± 1.72	
COc1ccc(C(=O)/C=C/c2cccc(O)c2)c(O)c1 [Compound 11, 2′,3-dihydroxy-4′-methoxychalcone]	13.6 ± 1.76	
COc1ccc(C(=O)/C=C/c2ccc(OC3CCCCO3)cc2)cc1 (centres unmarked) [Compound 17a, 4′-methoxy-4-(tetrahydropyran-2-yloxy)chalcone]	28.8 ± 0.29	
COc1ccc(C(=O)/C=C/c2ccccc2OC)c(O)c1 [Compound 13, 2′-hydroxy-2,4′-dimethoxychalcone]	21.8 ± 1.78	
COc1ccc(/C=C/C(=O)c2ccc(OC)cc2OC)cc1 [Compound 4, 2′,4,4′-trimethoxychalcone]	14.4 ± 2.56	
COc1ccc(/C=C/C(=O)c2ccc(OC3CCCCO3)cc2O)cc1OC (centres unmarked) [Compound 6a, 2′-hydroxy-3,4-dimethoxy-4′-(tetrahydropyran-2-yloxy)chalcone]	> 50	
COc1c2occc2cc2ccc(=O)oc12 [Compound D, 9-methoxyfuran[3,2-g]chromen-7-one, reference compound]		effect on the expression of N1VAL [1]: did not significantly modulate; effect on cell proliferation (DND41 cells; DND41 cells): do not significantly affect cell proliferation; IC50 (DND41 cells; [3]): > 50 µM
COc1ccc(C(=O)/C=C/c2ccccc2O)c(O)c1 [Compound 12, 2,2′-dihydroxy-4′-methoxychalcone]	14.2 ± 0.58	
COc1ccc(C(=O)/C=C/c2ccccc2)c(O)c1 [Compound 9, 2′-hydroxy-4′-methoxychalcone]	11.1 ± 0.59	
COc1ccc(C(=O)/C=C/c2ccc(OC)c(OC)c2)c(O)c1 [Compound 2, 2′-hydroxy-3,4,4′-trimethoxychalcone]	31 ± 5.98	

Compound	IC50 (DND41 cells; [2]) [µM]	other results
COc1ccc(/C=C/C(=O)c2ccc(OC)cc2O)cc1 [Compound 3, 2′-hydroxy-4,4′-dimethoxychalcone]	47.5 ± 1.14	
O=C(/C=C/c1ccc(O)c(O)c1)c1ccc(O)cc1O [Compound C, (E)-1-(2,4-dihydroxyphenyl)-3-(3,4-dihydroxyphenyl)prop-2-en-1-one, reference compound]		IC50 (DND41 cells; [3]): 7.79 µM; IC50 (DND41 cells; [4]): 7.79 ± 1.73 µM
COc1ccc2oc3cccc(O)c3c(=O)c2c1 [Compound F, 1-hydroxy-7-methoxy-9H-xanthen-9-one, reference compound]		effect on the expression of N1VAL [1]: did not significantly modulate; effect on cell proliferation (DND41 cells; DND41 cells): do not significantly affect cell proliferation; IC50 (DND41 cells; [3]): > 50 µM
COc1ccc(C(=O)/C=C/c2ccc(OC)c(OC)c2)c(OC)c1 [Compound 1, 2′,3,4,4′-tetramethoxychalcone]	15 ± 3.04	
O=C(/C=C/c1ccc(O)cc1)c1ccccc1O [Compound 14, 2′,4-dihydroxychalcone]	16.5 ± 0.9	
CC(C)=CCc1c(O)ccc(C(=O)/C=C/c2ccc(O)cc2)c1O [Compound B, (E)-1-[2,4-dihydroxy-3-(3-methylbut-2-enyl)phenyl]-3-(4-hydroxyphenyl) prop-2-en-1-one, reference compound]		inhibitory activity of Notch ([1]; screening carried out by the present inventors): did not show any inhibitory activity; IC50 (DND41 cells; [3]): 13.9 µM; IC50 (DND41 cells; [4]): 13.9 ± 2.7 µM
COc1ccc(C(=O)/C=C/c2ccc(OC3CCCCO3)c(OC)c2)c(O)c1 (centres unmarked) [Compound 7a, 2′-hydroxy-3,4′-dimethoxy-4-(tetrahydropyran-2-yloxy)chalcone]	24.4 ± 1.76	
COc1ccc(C(=O)/C=C/c2ccc(O)c(OC)c2)c(O)c1 [Compound 7, 2′,4-dihydroxy-3,4′-dimethoxychalcone]	33.1 ± 1.89	
COc1ccc(C(=O)CCc2ccc(O)cc2)c(O)c1 [Compound 8b, 2′,4-dihydroxy-4′-methoxydihydrochalcone]		IC50 (DND41 cells; 36-hour treatments in DND41 cells, mean of triplicate experiments ± S.D., Table 2, read-out: IG50 ± S.D.): > 50 µM
O=C1c2c(O)cc(O)cc2O[C@H](c2ccc(O)c(O)c2)[C@H]1O [Compound A, (2R,3R)-2-(3,4-dihydroxyphenyl)-3,5,7-trihydroxy-2,3-dihydrochromen-4-one, reference compound]		effect on cell proliferation (DND41 cells; DND41 cells): do not significantly affect cell proliferation; IC50 (DND41 cells; [3]): > 50 µM
COc1ccc(C(=O)/C=C/c2cccc(OC3CCCCO3)c2)c(O)c1 (centres unmarked) [Compound 11a, 2′-hydroxy-4′-methoxy-3-(tetrahydropyran-2-yloxy)chalcone]	17.4 ± 1.2	
COc1ccccc1C(=O)/C=C/c1ccc(O)cc1 [Compound 15, 4-hydroxy-2′-methoxychalcone]	16.8 ± 2.71	
COc1ccc(C(=O)/C=C/c2ccc(OC)c(OC3CCCCO3)c2)c(O)c1 (centres unmarked) [Compound 5a, 2′-hydroxy-4,4′-dimethoxy-3-(tetrahydropyran-2-yloxy) chalcone]	> 50	
COc1ccccc1C(=O)/C=C/c1ccc(OC2CCCCO2)cc1 (centres unmarked) [Compound 15a, 2′-methoxy-4-(tetrahydropyran-2-yloxy)chalcone]	31.5 ± 1.46	
COc1ccc(C(=O)/C=C/c2ccc(O)cc2)c(OC)c1 [Compound 16, 4-hydroxy-2′,4′-dimethoxychalcone]	13.8 ± 0.61	concentration at which expression of N1VAL and N3ICD is decreased [1]: 2.5 µM; IC50 (DND41 cells; [4]): > 13 µM
COc1ccc(C(=O)/C=C/c2ccc(O)cc2)cc1 [Compound 17, 4-hydroxy-4′-methoxychalcone]	19.5 ± 0.56	concentration at which expression of N1VAL and N3ICD is decreased [1]: 2.5 µM; IC50 (DND41 cells; [4]): > 13 µM
